# Test results taken from patent US20250042848A1, “DEUTERATED FUNCTIONALIZED DERIVATIVES OF alpha-ALANINE, IN [sequence] FOR THE TREATMENT OF NEUROLOGICAL DISEASES” (UNIWERSYTET JAGIELLONSKI, priority 2021, published 2025).
# Key:
# [1] = tested on: capsaicin-induced pain in mice; experiment: Capsaicin-induced pain model; assay type: in vivo
# Experimental: This test evaluated the licking and/or biting time of the hind paw after intraplantar injection of 1.6 μg of capsaicin in a constant volume of 20 μL. Observation was carried out in the period of 5 minutes after capsaicin administration. Inhibition of the nociceptive response —shortening the time of licking and biting the paw, was a measure of the antinociceptive activity of the tested compound.
# (§1) All tests/models were performed based on procedures described in the specialist literature: formalin test (Beirith et al. Eur. J. Pharmacol. 1998, 345, 233-245), capsaicin-induced pain model (Mogilski et al. Pharmacol. Biochem. Behav. 2015, 133, 99-110), oxaliplatin-induced neuropathic pain model-von Frey's test (Sałat et al. Pharmacol. Biochem. Behav. 2014, 122, 173-181), streptozotocin-induced diabetic neuropathic pain model-von Frey's test (Sałat et al. Neuropharmacology 2017, 125, 181-188; Tanabe et al. J. Pharmacol. Sci. 2008, 107, 213-220). The test group consisted of 8-10 animals.
# [2] = tested on: streptozotocin-induced mechanical allodynia in mice; experiment: Streptozotocin-induced diabetic neuropathic pain model, von Frey test; assay type: in vivo; conditions: three weeks after STZ
# Experimental: The response was tested 3 weeks after the streptozotocin injection. […] Importantly, d4-(R)-1 completely abolished the symptoms of developing sensory neuropathy at all doses.
# as §1
# [3] = tested on: human liver microsomes (HLMs); experiment: In vitro metabolic stability, human liver microsomes; assay type: in vitro ADME; conditions: 120-minute incubation with HLMs
# Experimental: Metabolic stability assessment was performed using mouse (MLMs) and human (HLMs) liver microsomes purchased from Sigma-Aldrich (St. Louis, MO, USA). The detailed methodology is described in the literature (Kamiński et al. J. Med. Chem. 2015, 58, 5274-5286). The reaction mixture was prepared by mixing […] of the tested compound with mouse or human microsomes (1 mg/mL) in 10 mM TRIS-HCl buffer. The reaction mixture was pre-incubated for 5 min at 37° C. After the initial incubation, 50 μL of the NADPH Regeneration System (Promega, Madison, WI, USA) was added to initiate the reaction. The reaction mixture was then incubated for 120 min at 37° C. 200 μL of cold extra pure methanol was added to complete the reaction. The mixture was then centrifuged at 14,000 g for 15 min and the supernatants were analyzed using a Waters ACQUITY™ TQD LC/MS system with a TQ detector (Waters, Milford, USA). Each experiment was performed in triplicate.
# [4] = tested on: spontaneous locomotor activity of mice; conditions: mouse, in vivo
# Experimental: For this purpose, the number of light beam crossings in the cages was counted in each group of animals during a 30-minute observation.
# The experiments were carried out on male albino mice (CD-1) weighing 25-30 g, provided by an accredited animal facility. All procedures were performed in accordance with the applicable Polish and European guidelines on the ethics of research on animals, after obtaining the appropriate approval. The substance was administered intraperitoneally after suspension in a 1% Tween 80 solution, as single injections of 0.1 mL/10 g b.w., 30 minutes before a given test.
# The assessment of the influence of the tested compound on the spontaneous locomotor activity of animals (assessment of the sedative or activating effect) was carried out in accordance with the methodology described in the scientific literature (Mogilski et al. Inflamm. Res. 2017, 66, 79-95), using a cage with dimensions 40×40×31 cm (Activity Cage; Ugo Basile, Gemonio VA, Italy). The compound was administered 30 minutes before the experiment. The number of light beam crossings was counted in each group during the next 30 min at 10-minute intervals. The study group consisted of 10 animals.
structure (smiles),measurement,setting,value
"[2H]C1([2H])C(=O)N([C@H](C)C(=O)NCc2ccccc2)C(=O)C1([2H])[2H] [d4-(R)-1, (R)-N-benzyl-2-(2,5-dioxopyrrolidin-1-yl-3,3,4,4-d4) propanamide]","ED50, capsaicin test",[1]; i.p.,17.5 mg/kg
same,"nociceptive response in the capsaicin test, % of the initial value (control)",[1]; i.p. 30 mg/kg,31.77%
same,"nociceptive response in the capsaicin test, % of the initial value (control)",[1]; i.p. 60 mg/kg,38.72%
same,"nociceptive response in the capsaicin test, % of the initial value (control)",[1]; i.p. 90 mg/kg,10.90%
same,pain threshold (von Frey),[2]; 30 mg/kg i.p.,6.80 ± 0.54 g
same,"pain threshold, % of baseline",[2]; 30 mg/kg i.p.,115.4%
same,pain threshold (von Frey),[2]; 60 mg/kg i.p.,8.64 ± 0.72 g
same,"pain threshold, % of baseline",[2]; 60 mg/kg i.p.,146.6%
same,pain threshold (von Frey),[2]; 90 mg/kg i.p.,9.40 ± 0.61 g
same,"pain threshold, % of baseline",[2]; 90 mg/kg i.p.,159.6%
same,metabolic stability,[3],high metabolic stability
same,"locomotor activity (light beam crossings in 30 min), % of the initial value (vehicle)",[4],46.90%
